Reference: patent US8530460B2, “Azetidine derivatives” (Boehringer Ingelheim International GmbH, priority 2011, dated 2013)

target: human ACC2 (Homo sapiens (Human), UniProt O00763); assay: ACC2 assay (spectrophotometric 384 well assay, NADH-linked coupled lactate dehydrogenase/pyruvate kinase); type: biochemical; conditions: hACC2 construct lacking 128 N-terminal amino acids; 25° C., 340 nm, 15 minutes
Procedure: Spectrophotometric 384 Well Assay
Malonyl CoA formation by acetyl CoA carboxylases is stoichometrically linked to the consumption of ATP. ACC2 activity is measured in a NADH-linked kinetic method measuring ADP generated during the ACC reaction using a coupled lactate dehydrogenase/pyruvate kinase reaction.
For biological testing, a human ACC2 construct which lacks the 128 amino acids at the N-terminus for increased solubility (nt 385-6966 in Genbank entry AJ575592) is cloned. The protein is then expressed in insect cells using a baculoviral expression system. Protein purification is performed by anion exchange.
All compounds are dissolved in dimethyl sulfoxide (DMSO) to a concentration of 10 mM.
Assay reactions are then carried out in 384-well plates, with hACC2 in an appropriate dilution and at final assay concentrations (f.c.) of 100 mM Tris (pH 7.5), 10 mM trisodium citrate, 25 mM KHCO3, 10 mM MgCl2, 0.5 mg/ml BSA, 3.75 mM reduced L-glutathione, 15 U/ml lactate dehydrogenase, 0.5 mM phosphoenolpyruvate, 15 U/ml pyruvate kinase, compounds at different concentrations at final DMSO concentrations of 1%.
The enzymatic reaction is then started by addition of a mixture of NADH, acetyl Coenzyme A (both 200 μM f.c.) and ATP (500 uM f.c.). The decrease of the optical density (slope S) is then determined at 25° C. at a wavelength of 340 nm over 15 minutes in a spectrophotometric reader.
Each assay microtiter plate contains wells with vehicle instead of compound as controls for the non-inhibited enzyme (100% CTL; ‘HIGH’) and wells without acetyl-CoA as controls for non-specific NADH degradation (0% CTL; ‘LOW’).
The slope S is used for calculation of % CTL=(S(compound)−S(‘LOW’))/(S(‘HIGH’)—S(‘LOW’))*100. Compounds will give values between 100% CTL (no inhibition) and 0% CTL (complete inhibition).
For IC50 value determination, the sample slope in the presence of the test compound after subtraction of the low controls (S(compound)−S(‘LOW’)) are used.
An IC50 value is derived from the compound slopes at different dosages after subtraction of the low controls (S(compound)−S(‘LOW’)) by non-linear regression curve fitting (equation y=(A+((B−A)/(1+((C/x)^D))))).

Chain of human ACC2 (O00763 129-2458): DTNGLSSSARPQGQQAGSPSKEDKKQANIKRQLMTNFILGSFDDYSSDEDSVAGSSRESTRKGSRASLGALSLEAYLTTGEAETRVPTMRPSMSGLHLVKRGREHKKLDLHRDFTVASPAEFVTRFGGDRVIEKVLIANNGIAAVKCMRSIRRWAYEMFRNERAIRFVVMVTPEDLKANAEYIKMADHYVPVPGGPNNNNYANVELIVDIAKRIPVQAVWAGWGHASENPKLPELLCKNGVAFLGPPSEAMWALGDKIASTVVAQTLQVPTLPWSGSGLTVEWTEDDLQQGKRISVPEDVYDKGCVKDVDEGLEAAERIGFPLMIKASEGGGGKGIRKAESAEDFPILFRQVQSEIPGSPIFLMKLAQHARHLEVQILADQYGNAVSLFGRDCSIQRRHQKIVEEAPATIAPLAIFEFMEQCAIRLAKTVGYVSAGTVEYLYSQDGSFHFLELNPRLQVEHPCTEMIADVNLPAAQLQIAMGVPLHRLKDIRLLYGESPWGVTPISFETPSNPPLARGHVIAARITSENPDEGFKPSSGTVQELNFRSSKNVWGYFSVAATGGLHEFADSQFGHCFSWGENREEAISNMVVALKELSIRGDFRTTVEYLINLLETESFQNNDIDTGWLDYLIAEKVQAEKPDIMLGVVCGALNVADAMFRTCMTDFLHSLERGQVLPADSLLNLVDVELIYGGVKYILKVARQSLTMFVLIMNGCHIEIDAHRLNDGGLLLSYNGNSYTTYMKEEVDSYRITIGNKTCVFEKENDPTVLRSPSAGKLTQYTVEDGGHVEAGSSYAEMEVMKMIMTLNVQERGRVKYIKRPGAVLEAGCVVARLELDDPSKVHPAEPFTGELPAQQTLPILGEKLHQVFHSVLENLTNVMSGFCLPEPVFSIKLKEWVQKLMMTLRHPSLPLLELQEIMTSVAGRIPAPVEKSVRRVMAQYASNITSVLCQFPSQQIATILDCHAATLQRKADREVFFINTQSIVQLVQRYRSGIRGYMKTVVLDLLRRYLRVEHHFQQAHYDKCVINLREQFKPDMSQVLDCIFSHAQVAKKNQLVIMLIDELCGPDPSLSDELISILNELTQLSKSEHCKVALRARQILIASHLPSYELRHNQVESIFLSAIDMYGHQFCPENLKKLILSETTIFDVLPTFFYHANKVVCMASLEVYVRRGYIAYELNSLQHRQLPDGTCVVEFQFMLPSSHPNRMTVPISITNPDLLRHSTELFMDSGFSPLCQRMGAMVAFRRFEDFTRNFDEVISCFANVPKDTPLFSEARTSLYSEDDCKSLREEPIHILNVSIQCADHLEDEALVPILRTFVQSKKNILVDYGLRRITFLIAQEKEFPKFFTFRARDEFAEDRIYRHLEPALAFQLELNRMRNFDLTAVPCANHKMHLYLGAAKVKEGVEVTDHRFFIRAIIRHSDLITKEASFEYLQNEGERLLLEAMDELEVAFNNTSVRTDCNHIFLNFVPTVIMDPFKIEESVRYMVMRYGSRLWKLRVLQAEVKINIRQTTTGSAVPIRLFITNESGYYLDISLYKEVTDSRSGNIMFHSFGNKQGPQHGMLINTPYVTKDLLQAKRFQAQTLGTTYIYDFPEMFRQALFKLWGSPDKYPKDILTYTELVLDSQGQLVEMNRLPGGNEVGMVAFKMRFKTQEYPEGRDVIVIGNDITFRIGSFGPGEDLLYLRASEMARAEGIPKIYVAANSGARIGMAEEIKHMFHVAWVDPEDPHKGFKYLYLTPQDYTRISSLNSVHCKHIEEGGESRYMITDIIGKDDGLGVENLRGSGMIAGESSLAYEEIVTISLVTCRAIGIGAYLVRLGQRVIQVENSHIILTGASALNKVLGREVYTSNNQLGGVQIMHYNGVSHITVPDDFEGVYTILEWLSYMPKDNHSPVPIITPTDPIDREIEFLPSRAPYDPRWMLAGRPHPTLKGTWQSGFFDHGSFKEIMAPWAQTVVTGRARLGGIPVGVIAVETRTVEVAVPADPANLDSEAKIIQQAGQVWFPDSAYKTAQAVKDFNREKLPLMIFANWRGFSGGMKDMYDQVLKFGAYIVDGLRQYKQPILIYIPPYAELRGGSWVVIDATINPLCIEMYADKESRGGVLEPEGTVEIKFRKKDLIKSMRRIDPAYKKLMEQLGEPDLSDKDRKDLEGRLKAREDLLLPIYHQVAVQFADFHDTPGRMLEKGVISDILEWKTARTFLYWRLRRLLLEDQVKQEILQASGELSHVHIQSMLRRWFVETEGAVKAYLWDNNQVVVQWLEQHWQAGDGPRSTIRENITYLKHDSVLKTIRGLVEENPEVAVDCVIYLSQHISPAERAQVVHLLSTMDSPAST

IC50 | SMILES
3480 nM | CC(=O)N[C@@H](C)c1ccc(OC2CN(c3nc(-c4ccccc4)no3)C2)cc1 [Example 4.41]
2450 nM | CC(=O)N[C@@H](C)c1ccc(OC2CN(c3ccc(C(C)C)cn3)C2)cc1 [Example 4.5]
6110 nM | CC(=O)N[C@@H](C)c1ccc(OC2CN(c3cc(C(F)(F)F)ncn3)C2)cc1 [Example 4.14]
750 nM | CC(=O)N[C@@H](C)c1ccc(OC2CN(c3noc4ccccc34)C2)cc1 [Example 4.25]
510 nM | CCOc1ccc(N2CC(Oc3ccc([C@H](C)NC(=O)c4cncs4)cc3)C2)cc1 [Example 8.41]
170 nM | CCOc1ccc(N2CC(Oc3ccc([C@H](C)NC(=O)c4sc(NC(C)=O)nc4C)cc3)C2)cc1 [Example 8.28]
430 nM | CCOc1ccc(N2CC(Oc3ccc([C@H](C)NC(=O)CC#N)cc3)C2)cc1 [Example 8.8]
11800 nM | CCOc1cc(N2CC(Oc3ccc([C@H](C)NC(C)=O)cc3)C2)ncn1 [Example 11.3]
3940 nM | CCOc1ccc(N2CC(Oc3ccc([C@H](C)NC(=O)Cc4cccnc4)cc3)C2)cc1 [Example 8.24]
410 nM | CCOc1ccc(N2CC(Oc3ccc([C@H](C)NC(=O)CC)cc3)C2)cc1 [Example 8.29]
3470 nM | CC(=O)N[C@@H](C)c1ccc(OC2CN(c3cc(Cl)ccn3)C2)cc1 [Example 4.7]
290 nM | CC(=O)N[C@@H](C)c1ccc(OC2CN(c3ccc(F)c(C(F)(F)F)n3)C2)cc1 [Example 4.37]
690 nM | CC(=O)N[C@@H](C)c1ccc(OC2CN(c3ccc4cc(Cl)ccc4n3)C2)cc1 [Example 4.15]
670 nM | CCOc1ccc(N2CC(Oc3ccc([C@H](C)NC(=O)N(C)C)cc3)C2)cc1 [Example 10.3]
360 nM | CC(=O)N[C@@H](C)c1ccc(OC2CN(c3cnc4ccccc4n3)C2)cc1 [Example 4.28]
2840 nM | CCOc1ccc(N2CC(Oc3ccc([C@H](C)NC(=O)c4cccc(NC(C)=O)c4)cc3)C2)cc1 [Example 8.11]
760 nM | CCOc1ccc(N2CC(Oc3ccc([C@H](C)NC(=O)C4CC(C)C4)cc3)C2)cc1 (stereo partly drawn) [Example 8.27]
570 nM | CC(=O)N[C@@H](C)c1ccc(OC2CN(c3ncc(C(C)(C)C)cn3)C2)cc1 [Example 4.27]
2390 nM | CC(=O)N[C@@H](C)c1ccc(OC2CN(c3cc(OCC4CC4)ncn3)C2)cc1 [Example 11.4]

IC50 | SMILES
5790 nM | CCOc1ccc(N2CC(Oc3ccc([C@H](C)NC(=O)CN(C)C)cc3)C2)cc1 [Example 8.23]
90 nM | CC(=O)N[C@@H](C)c1ccc(OC2CN(c3ncc(-c4ccc(F)cc4)cn3)C2)cc1 [Example 6.1]
5200 nM | CCOc1ccc(N2CC(Oc3ccc([C@H](C)NC(=O)C4CNC(=O)C4)cc3)C2)cc1 (stereo partly drawn) [Example 8.39]
230 nM | CCOc1ccc(N2CC(Oc3ccc([C@H](C)NC(=O)OC)cc3)C2)cc1 [Example 10.7]
1170 nM | CCNC(=O)N[C@@H](C)c1ccc(OC2CN(c3ncc(C4CC4)cn3)C2)cc1 [Example 10.2]
3050 nM | CC(=O)N[C@@H](C)c1ccc(OC2CN(c3nc4ccccc4nc3C)C2)cc1 [Example 4.38]
530 nM | CCOc1ccc(N2CC(Oc3ccc([C@H](C)NC(=O)c4ccnc(NC(C)=O)c4)cc3)C2)cc1 [Example 8.25]
200 nM | CC(=O)N[C@@H](C)c1ccc(OC2CN(c3ccc(C(F)(F)F)cn3)C2)cc1 [Example 4.19]
6230 nM | CC(=O)N[C@@H](C)c1ccc(OC2CN(c3nccc4ccccc34)C2)cc1 [Example 4.6]
450 nM | C=CCC(=O)N[C@@H](C)c1ccc(OC2CN(c3ccc(OCC)cc3)C2)cc1 [Example 8.13]
150 nM | CC(=O)NC(C)c1ccc(OC2CN(c3ncc(C4CC4)cn3)C2)cc1 (stereo not drawn) [Example 6.3]
2340 nM | CCOc1ccc(N2CC(Oc3ccc([C@H](C)NC(=O)CCCNC(C)=O)cc3)C2)cc1 [Example 8.43]
1800 nM | CC(=O)N[C@@H](C)c1ccc(OC2CN(c3cc(Br)ccn3)C2)cc1 [Example 4.18]
13300 nM | CC(=O)N[C@@H](C)c1ccc(OC2CN(c3ncc4nc(-c5ccsc5)oc4n3)C2)cc1 [Example 4.26]
1110 nM | CC(=O)N[C@@H](C)c1ccc(OC2CN(c3ccc(Br)c(C#N)n3)C2)cc1 [Example 4.35]
780 nM | CC(=O)N[C@@H](C)c1ccc(OC2CN(c3cccc(OC4CCCC4)c3)C2)cc1 [Example 7.3]
1090 nM | CCCOc1ccc(N2CC(Oc3ccc([C@H](C)NC(=O)c4cn[nH]c4)cc3)C2)c(OC)c1 [Example 8.3]
1770 nM | C[C@H](NC(=O)CC#N)c1ccc(OC2CN(c3ncc(C4CC4)cn3)C2)cc1 [Example 8.6]

Continued, molecule first:

SMILES | IC50
CCCOc1ccc(N2CC(Oc3ccc([C@H](C)NC(C)=O)cc3)C2)c(C#N)n1 [Example 1.59] | 300 nM
CC(=O)N[C@@H](C)c1ccc(OC2CN(c3ccc(OCC4CC4(F)F)cc3F)C2)cc1 (stereo partly drawn) [Example 1.54] | 40 nM
CC(=O)NC(C)c1ccc(OC2CN(c3ccc(C(C)(C)C)cc3)C2)cc1 (stereo not drawn) [Example 1.1, N-(1-(4-(1-(4-tert-Butylphenyl)azetidin-3-yloxy)phenyl)ethyl)acetamide] | 180 nM
CC(=O)N[C@@H](C)c1ccc(OC2CN(c3ccc4c(c3)OCCO4)C2)cc1 [Example 1.24] | 120 nM
CCC(C)Oc1ccc(N2CC(Oc3ccc([C@H](C)NC(C)=O)cc3)C2)c(OC)c1 (stereo partly drawn) [Example 1.38] | 2310 nM
CC(=O)N[C@@H](C)c1ccc(OC2CN(c3ccc(OCC4CC4)cc3C#N)C2)cc1 [Example 1.47] | 400 nM
CCCc1cnc(N2CC(Oc3ccc(C(C)NC(C)=O)cc3)C2)nc1 (stereo not drawn) [Example 3.3] | 320 nM
CC(=O)NC(C)c1ccc(OC2CN(c3ccc4c(c3)OCCO4)C2)cc1 (stereo not drawn) [Example 1.2] | 240 nM
CC(=O)N[C@@H](C)c1ccc(OC2CN(c3ccc(OCC4CC4)nc3C#N)C2)cc1 [Example 1.60] | 650 nM
CCCOc1ccc(N2CC(Oc3ccc([C@H](C)NC(C)=O)cc3)C2)nc1 [Example 1.52] | 90 nM
CCCOc1ccc(N2CC(Oc3ccc([C@H](C)NC(C)=O)cc3)C2)c(Cl)c1 [Example 2.6] | 90 nM
CC(=O)N[C@@H](C)c1ccc(OC2CN(c3ccc(OCC4CC4)cc3)C2)cn1 (stereo in doubt) [Example 14, N-(1-{5-[1-(4-Cyclopropylmethoxy-phenyl)-azetidin-3-yloxy]-pyridin-2-yl}-ethyl)-acetamide] | 2040 nM
CC(=O)N[C@@H](C)c1ccc(OC2CN(c3ccc(OC4CCC4)cc3C#N)C2)cc1 [Example 1.46] | 170 nM
CCCOc1ccc(N2CC(Oc3ccc([C@H](C)NC(=O)C4CC4)cc3)C2)cc1 [Example 1.35] | 60 nM
CC(=O)N[C@@H](C)c1ccc(OC2CN(c3ccc(C(F)(F)F)cc3C#N)C2)cc1 [Example 1.23] | 2810 nM
CC(=O)N[C@@H](C)c1ccc(OC2CN(c3ccc(OCC4CC4)cc3)C2)cc1 [Example 1.14] | 70 nM
COc1cnc(N2CC(Oc3ccc([C@H](C)NC(C)=O)cc3)C2)nc1 [Example 3.2] | 1120 nM
COc1ccc(N2CC(Oc3ccc([C@H](C)NC(C)=O)cc3)C2)c(C#N)c1 [Example 1.22] | 1180 nM
CCC(=O)N[C@@H](C)c1ccc(OC2CN(c3ncc(C4CC4)cn3)C2)cc1 [Example 9, (S)—N-(1-(4-(1-(5-Cyclopropylpyrimidin-2-yl)azetidin-3-yloxy)phenyl)ethyl)-propionamide] | 1100 nM
CC(=O)N[C@@H](C)c1ccc(OC2CN(c3cc4c(cc3F)OCCCO4)C2)cc1 [Example 1.53] | 760 nM
CCNc1ncc(N2CC(Oc3ccc(C(C)NC(C)=O)cc3)C2)cn1 (stereo not drawn) [Example 1.7] | 1250 nM
CC(=O)NC(C)c1ccc(OC2CN(c3ccc(OC4CCCC4)cc3)C2)cc1 (stereo not drawn) [Example 1.6] | 80 nM
COc1cc(OC2CC2)ccc1N1CC(Oc2ccc([C@H](C)NC(C)=O)cc2)C1 [Example 1.43] | 1290 nM
COc1ccc(-c2cnc(N3CC(Oc4ccc(C(C)NC(C)=O)cc4)C3)nc2)cc1 (stereo not drawn) [Example 3.4] | 1470 nM
CCOc1cc(N2CC(Oc3ccc([C@H](C)NC(C)=O)cc3)C2)c(F)cn1 [Example 1.62] | 2910 nM
C[C@H](NC(=O)N(C)C)c1ccc(OC2CN(c3ccc4c(c3)OCCO4)C2)cc1 [Example 1.34] | 340 nM
COc1cc(OC2CCC2)ccc1N1CC(Oc2ccc([C@H](C)NC(C)=O)cc2)C1 [Example 1.20] | 490 nM
CCOc1ccc(N2CC(Oc3ccc([C@H](C)NC(=O)C4CC4)cc3)C2)cc1 [Example 2.10] | 140 nM
C[C@H](NC(=O)N(C)C)c1ccc(OC2CN(c3ccc(OCC4CC4)cc3)C2)cc1 [Example 1.33] | 200 nM
